Test results reported in US20130225684A1, “METHODS AND COMPOSITIONS FOR ENHANCEMENT OF VISION PERFORMANCE” (KYOWA HAKKO BIO CO., LTD., priority 2012, published 2013).
“Also recorded” adds a separate entry of the source. Where a SMILES comes first, the peptide text is derived from it.

What was measured:
[1] = hand-eye reaction time on the Dynavison D2 after a 40 minute basketball game; type: in vivo, women (basketball players); details: for Visual reaction time: FIG. 2
Protocol: The purpose of this study was to examine the efficacy of L-alanyl-Lglutamine (AG) ingestion on sports vision, including reaction time. Ten women (21.2±1.6 years; height: 177.8±8.7 cm; body mass:73.5±8.0 kg), all basketball players, volunteered for this study. The study required subjects to first participate in a 40 minute basketball game. During one trial, subjects consumed only water (W), while during the other two trials subjects consumed the AG supplement marketed as Sustamine mixed in water using either a low dose (1 g per 500 ml) (AG1) or high dose (2 g per 500 ml) (AG2) concentration. Other subjects where not allowed to consume water or AG. (DHY) Measurement of hand-eye reaction time was performed on the Dynavison D2 (Dynavision, Ontario Canada). Subjects were required to assume a comfortable athletic stance and stand at a distance from the board where they could easily reach all of the lights. The board height was adjusted so the LCD screen was located just below eye level. Participants were told to fixate their gaze on the LCD screen in the middle of the board and to keep their focus there for the entirety of the experiment. During the assessment each subject pressed a light with their dominant side index finger on the board. When a second light flashed (on the same line of the initial light, but on the non-dominant side of their body), the subject removed their finger and pressed the new visual stimulus. The time necessary to recognize the new stimulus (new light lit until finger lifted from initial light) was recorded as visual reaction time, and the time it took for the subject to move and press the newly lit light was recorded as the motor reaction time. The total time for both visual reaction and motor reaction was calculated as the physical reaction time. A total of eight attempts were performed. The average time for all eight attempts was recorded.

[2] = alanylglutamine compared to glutamine; cited from earlier work
[3] = alanylglutamine compared to glutamine; cited from earlier work; remark: listed apart in the source
[4] = into alanine and glutamine; cited from earlier work

Row | SMILES | Visual reaction time ([1]; AG1: low dose (1 g per 500 ml) in water, compared to DHY (no water and no AG), p=0.014) | change in the physical reaction time (combined visual and motor differences) ([1]; AG1: low dose (1 g per 500 ml) in water, compared to DHY, p=0.032) | Visual reaction time ([1]; AG2: high dose (2 g per 500 ml) in water, compared to DHY, p=0.018) | motor response (motor reaction time) ([1]; between trials (AG1, AG2, W, DHY), FIG. 3) | solubility in aqueous solutions [2] | heat stability [3] | degradation in the body [4]
1 | C[C@H](N)C(=O)N[C@@H](CCC(N)=O)C(=O)O [AG, L-alanyl-Lglutamine] (H-Ala-Gln-OH) | significantly better; also recorded: enhanced visual reaction time | significantly greater | trend toward a similar response | no significant differences | superior | superior | immediately degraded
2 | NC(=O)CC[C@H](N)C(=O)O [glutamine, reference compound] | – | – | – | – | low-solubility | – | –
